Assay results as given in patent publication US11331102B2, “Purified pentagalloyl glucose and devices for delivery” (Nectero Medical, Inc., priority 2018, dated 2022).

Experiment: studies of the concentration at which PGG of a given purity may be safely delivered
Conditions: depends on purity of the PGG; toxic impurities gallic acid and methyl gallate
Text: The concentrations of PGG which may be safely delivered to a patient may be generally proportional to the purity of the PGG. For example, gallic acid, depicted in FIG. 1B, and methyl gallate, depicted in FIG. 1C, are common cytotoxic impurities which may be removed from a source batch of PGG during the purification process. Eliminating the presence of or reducing the concentration of toxic impurities from the delivered PGG may allow higher concentrations of the PGG to be delivered due to the mitigation of the toxic side effects of impurities commonly found in isolated PGG. For instance, studies have shown that substantially 100% pure PGG may be safely delivered at concentrations up to approximately 0.330% (w/v), 95% pure PGG may be safely delivered at concentrations up to approximately 0.125% (w/v), and 85% pure PGG may be safely delivered at concentrations up to approximately 0.06% (w/v). Delivery of PGG in higher concentrations may enhance the amount of uptake of PGG by the target tissue which may increase the efficacy of the PGG treatment. Delivery of PGG in higher concentrations may increase the rate of uptake of PGG by the tissue allowing the same amount of uptake in shorter delivery times. Reducing or minimizing the delivery time may be advantageous for reducing the overall treatment time, and particularly the duration of time for which a blood vessel, such as the aorta, is potentially occluded, as described elsewhere herein. Minimization of the treatment time and particularly the duration of blood occlusion may improve the safety and convenience of the treatment procedure and improve patient outcomes.

Substance	concentration up to which PGG may be safely delivered
1,2,3,4,6-pentagalloyl glucose [95% pure PGG]	≤ 0.125 % (w/v)
1,2,3,4,6-pentagalloyl glucose [85% pure PGG]	≤ 0.06 % (w/v)
1,2,3,4,6-pentagalloyl glucose [substantially 100% pure PGG]	≤ 0.330 % (w/v)
